The subject of assay [1] is cytochrome c oxidase (electron transfer from heme a to heme a3). Kind of assay: Level and kinetics of heme a / heme a3 reduction in CcO. Conditions: pH 8.0, 5 μM RuAm, 5 mM ascorbate.
Experimental: The kinetics of spectral changes were monitored on spectrophotometer SLM Aminco DW-2000 (SLM Instruments, Urbana, IL, USA) in dual-wavelength mode.
The oxidase reaction was carried out using ascorbate (as an electron source) in combination with the redox mediators RuAm and TMPD. The reduction of CcO was monitored spectrophotometrically.
The total reduction level of hemes a and a3 was registered. […] The other conditions were as in panel (A) except that 0.1 mM TMPD was used instead of RuAm.
Another assay relates to T1, CcO in proteoliposomes.
T1 construct: Cytochrome c oxidase (CcO) was purified from heart mitochondria of Bos taurus; from tissue; host or cells: bovine heart mitochondria
In words: Ferrocytochrome c oxidation by CcO in proteoliposomes. Format: biochemical, Bos taurus. The procedure: CcO reconstruction into phospholipid vesicles.
Cytochrome c was reduced beforehand by dithionite.
Figure 2 Inhibitory effect of thyroid hormones on the oxidase activity of the membrane-incorporated CcO. […] Proteoliposomes were added to the experimental medium up to 26 nM CcO. The oxidase reaction was initiated by addition of the respiratory substrate. Other details are as in Figure 1B,D. (D) T3-induced inhibition of ferrocytochrome c oxidation by CcO in proteoliposomes. […] Other conditions are as in panel (A) except that proteoliposomes were added to the medium up to 3.25 nM CcO and pre-incubated for 30 min before adding the respiratory substrate. […] Mitochondria were suspended in the experimental medium up to 0.8 mg of protein/mL. Other details are as in Figure 1B,D. (F) Inhibitory effect of T4 on CcO oxidase activity in SMP obtained from bovine heart mitochondria. The conditions were essentially as in panel (E) except that the CcO concentration was 20 nM.

For assay [2], the target named is T2, solubilized cytochrome c oxidase (CcO) from bovine heart mitochondria (Bos taurus, UniProt P00396+P68530).
T2 construct: Cytochrome c oxidase (CcO) was purified from heart mitochondria of Bos taurus; from tissue; host or cells: bovine heart mitochondria
Kind of assay: Oxidase activity of solubilized CcO, oxygen consumption (Clark-type electrode). It counts as biochemical. Conditions: for Kd: read-out: Kc, dissociation constant of the DM-CcO complex.
Text: Preparations. Cytochrome c oxidase (CcO) was purified from heart mitochondria of Bos taurus. […] CcO was isolated according to a modified method of Fowler et al. [21] described previously [22].

Assay [3] has as its target solubilized CcO from mitochondria. Conditions: read-out: Kc (dissociation constant for DM), cited from earlier work.
For assay [4], the system named is T3, xanthine oxidase from bovine milk.
T3 construct: xanthine oxidase from bovine milk; purchased Sigma-Aldrich; host or cells: bovine milk
Kind of assay: Superoxide formation by xanthine oxidase oxidizing hypoxanthine (test for superoxide dismutase activity). It counts as biochemical. To be noted: hypoxanthine 50 μM, XOx 0.015 units/mL; 500 μM T4; SOD 20 μg/mL. The source says: The conditions were adjusted so that the rate of WST reduction was approximately the same as in panel (A).

Assay [5] has as its target mitochondrial cytochrome c oxidase (CcO) (Bos taurus, UniProt P00426). Kind of assay: Superoxide generation by CcO in excess H2O2 (WST-1 reduction).
Experimental: The reaction of superoxide generation catalyzed by CcO in the presence of excess hydrogen peroxide was assayed in the basic medium, pH 7.6 by the classic method [27], monitoring the superoxide dismutase-sensitive reduction of tetrazolium salts to formazan.
Addition of 0.4 µM T4 is indicated. CcO was added up to 0.5 μM to the experimental medium, supplemented with 0.1 mM WST-1. The reaction was initiated by addition of 4 mM H2O2 (indicated by the arrow). […] Conditions of the measurements are as in panel (A).
Assay [6] has as its system T4, oxidized cytochrome c oxidase (CcO).
T4 construct: Cytochrome c oxidase (CcO) was purified from heart mitochondria of Bos taurus; from tissue; host or cells: bovine heart mitochondria
In words: Formation of CcO oxoferryl intermediates FI-607 and FII-580 with H2O2 (titration, stopped-flow). Format: biochemical, Bos taurus. The procedure:
Stopped-flow experiments were performed using a stopped-flow spectrophotometer (Applied Photophysics SX-20, Leatherhead, UK) operated in the diode array mode, using a 20-μL cell with a 1-cm optical pathway.
Oxoferryl intermediates’ formation was monitored using stopped-flow techniques. CcO in the basic medium, pH 8.1 supplemented with 0.1% DM, 0.05 mM ferricyanide and when necessary, T4 was rapidly mixed with an equal volume of the same buffer containing H2O2.
We carried out such a titration to evaluate the effects of thyroid hormones on the equilibrium of oxoferryl intermediates.
Figure 6 Effect of T4 on the formation of CcO oxoferryl intermediates during the reaction with H2O2. The reaction was followed using a diode array spectrophotometer. […] (A, B) Kinetics of the oxoferryl intermediates’ formation. […] (A) Control; (B) CcO was pre-incubated with 0.5 mM T4 until mixing.

Assay [7] concerns T5, cytochrome c oxidase (CcO).
T5 construct: Cytochrome c oxidase (CcO) was purified from heart mitochondria of Bos taurus; from tissue; host or cells: bovine heart mitochondria
Kind of assay: Peroxidase activity of CcO (ferrocyanide peroxidation). Format: biochemical, Bos taurus. To be noted: for rate of peroxidase reaction: 0.5 mM hormone, control 0.19 e−/s, error about 10%. The procedure: To obtain a redox buffer with Em ≈ 420 mV, equal amounts of ferri- and ferrocyanide were mixed. To facilitate the interaction of ferrocyanide with CcO, 0.2 μM cytochrome c was present.
Peroxidation of ferrocyanide (0.2 mM) was monitored in the presence of 0.6 μM CcO. […] Trace 1, black = control; trace 2, red = the experiment in the presence of 1 mM T4; trace 3, blue = 1 mM T4 added in the course of the experiment, as indicated.

The target of assay [8] is T6, CcO in SMP obtained from bovine heart mitochondria (Bos taurus, UniProt P00396+P68530).
T6 construct: Then, CcO in the native mitochondrial membrane was investigated; from tissue; host or cells: bovine heart submitochondrial particles
Kind of assay: CcO oxidase activity in bovine heart submitochondrial particles (SMP). Format: biochemical. The procedure:
Preparation of bovine heart submitochondrial particles (SMP). The heavy fraction of bovine heart mitochondria was suspended in 40 mL of 0.3 M sucrose supplemented with 5 mM MgSO4, 1 mM succinate, 1 mM ATP and 10 mM Hepes, pH 8.0. […] Mitochondrial debris was removed by centrifugation for 12 min at 15,000 rpm (Beckman JA-20, Brea, CA, USA). SMP were precipitated from supernatant at 100,000 g for 1 h, washed by 0.3 M sucrose with 10 mM Hepes, pH 7.5 and precipitated as previously described. The final precipitate was suspended in a small volume of the same buffer and frozen. To determine the CcO concentration in the sample, a small amount of SMP was solubilized in 50 mM Hepes/Tris buffer, pH 7.6 containing 1% DM.

Assay [9] deals with CcO incorporated into azolectin vesicles (proteoliposomes) (Bos taurus, UniProt P00396+P68530). In words: Oxidase activity of CcO in proteoliposomes, oxygen consumption.
Experimental: First, the effect of thyroid hormones on CcO incorporated into azolectin vesicles was studied. The activity was assayed in the same way as in solution except for the absence of detergent and presence of protonophore in the medium (see Section 2).
Assay [10] deals with cytochrome c oxidase (CcO). In words: Catalase activity of CcO (oxygen release from H2O2). Conditions: higher hormone concentration (curve 4, 1 mM).
Experimental: The catalase activity of CcO was detected by a Clark-type electrode in the presence of excess hydrogen peroxide, in 30 mM potassium-phosphate buffer, pH 7.1 supplemented with 2 mM EDTA and 0.05% DM, as described in [26].
The test system of the next assay is mitochondrial CcO. Details: method as in PMID 8013649. To be noted: 0.2 μM enzyme; cited from earlier work.

Several values for one entry are separate records, joined by “and”; a condition that tells them apart may be missing. Equal values may be shown once. Entries after “also recorded” stand apart in the source; their conditions may differ. Read-outs that look alike come from different tables or passages of the source.

For `N[C@@H](Cc1cc(I)c(Oc2ccc(O)c(I)c2)c(I)c1)C(=O)O` [T3, L-3,5,3′-triiodide-thyronine], the entries for the “increase of steady-state level of heme a reduction over control” value in assay [1] (1 mM hormone) and in assay [1] (2 mM hormone) were ~ 75% and ~ 115%, respectively. Besides, the “time of enzyme activity after which inhibition develops” value in the assay on CcO in proteoliposomes (0.5 mM T3 (~450 turnovers)) turned out to be 10 s. The “decrease in the activity compared to the control” value in the assay on CcO in proteoliposomes (0.5 mM T3, pre-incubation 30 min, 3.25 nM CcO) is “approximately twofold decrease”.

With `CCCCCCCCCCCCO[C@@H]1O[C@H](CO)[C@@H](O[C@H]2O[C@H](CO)[C@@H](O)[C@H](O)[C@H]2O)[C@H](O)[C@H]1O` [DM, dodecyl-maltoside], the Kd was roughly 1120 µM in assay [2] (from competition with T3 (T3=0)); roughly 1100 µM in assay [2] (from competition with T4 (T4=0)); 1200 µM in assay [3] (from study of CcO inhibition by Triton X-100); 1470 µM in assay [3] (from study of CcO inhibition by estradiol); 1300 µM in [3] (from study of CcO inhibition by testosterone).

On to “superoxide dismutase: superoxide dismutase from bovine erythrocytes, control blocking WST reduction”, for which the “effect on the rate of dye (WST) reduction” value in assay [4] is on record as “completely blocked”.

As to `N[C@@H](Cc1cc(I)c(Oc2cc(I)c(O)c(I)c2)c(I)c1)C(=O)O` [T4, L-3,5,3′,5′tetraiodo-thyronine], the Ki is 0.3 µM in assay [5]; ~100 µM and 100 µM in assay [2] (oxygen consumption, pH 7.6, 25 °C, from linear dependence of Ki(app) on [DM] 0.4–10 mM, DM=0, read-out: true inhibition constant Ki (in the absence of DM)); roughly 100 µM in [2] (solubilized enzyme, Figure 1C,E, read-out: Ki); 2200 ± 200 µM in assay [8] (20 nM CcO); 310 µM in [9]. For the same compound, the “drop of the rate of WST-1 reduction (superoxide production)” value in [5] (0.4 μM T4) is reported as “drops threefold”. The “deviation of FI-607 (lower) and FII-580 (higher) concentration from control” value in assay [6] (0.5 mM T4, 15 s after mixing) is on record as “about 10%”. Besides, the “acceleration of formation of FII-580 (form 580)” value in assay [6] (0.5 mM hormone) was 23% and 20–25%. The “decrease in the quasi-stationary concentration ratio [FI-607]/[FII-580] vs control” value in [6] (0.5 mM hormone, titration of oxidized CcO with peroxide) was 15–25%. Also, the “rate of peroxidase reaction” value in assay [7] turned out to be 0.22 e^−/s. Also, the “effect on the rate of ferrocyanide peroxidation” value in [7] (1 mM T4, 0.6 μM CcO, 4 mM H2O2) is “does not noticeably change; also recorded: complete resistance”. For the same compound, in [2] ([…] T4, 20 nM CcO), the “decrease of the rate of oxygen consumption” value is “approximately two times”. Moreover, in assay [2] (lowest tested DM concentrations (0.02% and 0.05%)), the “extent of inhibition of enzyme activity” value is on record as 70–80%. Further, the “effect on the rate of dye (WST) reduction” value in assay [4] is recorded as “does not affect the rate of dye reduction”. The extent of inhibition result in assay [8] is given as “complete inhibition”. Further, in assay [10], the “suppression of catalase activity” value is on record as 10–20%. The “increase of steady-state level of heme a reduction over control” value in [1] (1 mM hormone) is reported as ~ 50%.

Regarding `N[C@@H](Cc1cc(I)c(Oc2ccc(O)cc2)c(I)c1)C(=O)O` [T2, 3,5-diiodo-thyronine], the “rate of peroxidase reaction” value in assay [7] is reported as 0.21 e^−/s. For the same compound, the “concentration from which effects of T2 start” value in the assay with mitochondrial CcO is 10^−7 M.
